# Test results: patent publication US20150352026A1, “COMPOSITION FOR INCREASING OF THE EFFECTIVENESS OF UV-B THERAPY, PROCESS FOR THE PREPARATION THEREOF, AND ITS USE” (GLOBALDERM KOZMETOLÓGIAI KORLÁTOLT FELELÖSSÉGÜ TÁRSASÁG, priority 2013, published 2015)
# Assay: Optical transmittance spectrum (Helios spectrophotometer, 200-600 nm)
# Type: physicochemical
# Settings: sharp decrease around 300 nm, below this value
# Method: Furthermore, a sharp decrease of transmittance was detectable around 300 nm wavelength and it fell to zero below this value.
# Compositions suitable for therapeutic purposes were selected by the measurement of optical transmittance. Measurements were performed using a Helios a spectrophotometer in the wavelength range of 200-600 nm. FIGS. […] and 2 show optical transmittance spectra of Macrogol 400 and the spray formulation of the composition, respectively. FIG. 3 illustrates the optical transmittance spectrum of the gel formulation of the composition.
smiles,measurement,value
O=C(O)c1cccnc1 [nicotinic acid],transmittance around and below 300 nm wavelength,more pronounced
